Like-named read-outs stand apart in the source and are kept apart here.
Test system: Ba/F3-FGFR3-transfected cells in the presence of 10 ng/ml murine IL3
Experiment: Ba/F3-FGFR3 (plus IL3) cellular proliferation counterscreen, Alamar Blue
Format: cell-based
Details: for IC50: Mus musculus
Method in brief: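 Ba/F3-FGFR3 cells in phenol red-free RPMI-1640/10% FBS exposed to compound 24 h at 37° C., then Alamar Blue (resazurin) 4 h; fluorescence ex 540/em 590 nm. Run at 20000 cells/well (384-well) or 10000 cells/well (96-well); counterscreen identical but with 10 ng/ml murine IL3.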

[1] = plus 10 ng/ml murine IL3, 384 well
[2] = plus 10 ng/ml murine IL3, 384 well, read-out: BAF3-FGFR 3 (PLUS IL3) 384 well pIC50 (converted)
[3] = plus IL3, 96 well, read-out: BAF3-FGFR 3 (PLUS IL3) 96 well pIC50 (converted)

COc1cc(OC)cc(N(CC(O)C(F)(F)F)c2ccc3ncc(-c4cccnc4)nc3c2)c1 (single isomer, unassigned) [Compound 54]
BAF3-FGFR 3 (PLUS IL3) 384 well pIC50 [1]: <5

COc1cc(OC)cc(N(CC(OC(C)=O)C(F)(F)F)c2ccc3ncc(-c4cccnc4)nc3c2)c1 (single isomer, unassigned) [Compound 75]
BAF3-FGFR 3 (PLUS IL3) 384 well pIC50 [1]: <5

COCCCN(c1cc(OC)cc(OC)c1)c1ccc2ncc(-c3ccn(C)c3)nc2c1 [Compound 3]
IC50 [2]: > 10 µM

COCCN(c1cc(OC)cc(OC)c1)c1ccc2ncc(-c3ccn(C)c3)nc2c1 [Compound 6]
IC50 [2]: > 10 µM

COc1cc(OC)cc(N(CCO)c2ccc3ncc(-c4cccnc4)nc3c2)c1 [Compound 9]
IC50 [2]: > 10 µM

COc1cc(OC)cc(N(CCO)c2ccc3ncc(-c4ccncc4)nc3c2)c1 [Compound 11]
IC50 [2]: > 10 µM

COc1cc(OC)cc(N(CCNC(C)C)c2ccc3ncc(-c4ccncc4)nc3c2)c1 [Compound 12]
IC50 [2]: > 10 µM

COc1cc(OC)cc(N(CC2CC2)c2ccc3ncc(-c4ccnn4C)nc3c2)c1 [Compound 18]
IC50 [2]: > 10 µM | IC50 [3]: > 10 µM

COc1cc(OC)cc(N(CC2CC2)c2ccc3ncc(-n4cnc(C)c4)nc3c2)c1 [Compound 30]
IC50 [2]: > 10 µM | IC50 [3]: > 10 µM

COc1cc(OC)cc(N(CC2CC2)c2ccc3ncc(-c4cn(CCO)nn4)nc3c2)c1 [Compound 40]
IC50 [2]: > 10 µM | IC50 [3]: > 10 µM

COc1cc(OC)cc(N(CCCO)c2ccc3ncc(-c4ccc(N5CCNCC5)nc4)nc3c2)c1 [Compound 48]
IC50 [2]: 5.5 µM

COc1cc(OC)cc(N(CC2CC2)c2ccc3ncc(-n4cncn4)nc3c2)c1 [Compound 50]
IC50 [2]: > 10 µM | IC50 [3]: > 10 µM

COc1cc(OC)cc(N(Cc2cccc(CN)n2)c2ccc3ncc(-c4ccc(N)nc4)nc3c2)c1 [Compound 51]
IC50 [2]: ~8.13 µM

COc1cc(OC)cc(N(CC2CC2)c2ccc3ncc(-c4ccn(CCO)c4)nc3c2)c1 [Compound 56]
IC50 [2]: > 10 µM | IC50 [3]: > 10 µM

COc1cc(OC)cc(N(CC2CC2)c2ccc3ncc(Nc4cnn(C)c4)nc3c2)c1 [Compound 61]
IC50 [2]: > 10 µM | IC50 [3]: 3.98 µM

COc1cc(OC)cc(N(CC2CC2)c2ccc3ncc(-c4cnn(C)n4)nc3c2)c1 [Compound 70]
IC50 [2]: > 10 µM | IC50 [3]: > 10 µM

COc1cc(OC)cc(N(CC2CC2)c2ccc3ncc(-c4cn(C)nn4)nc3c2)c1 [Compound 71]
IC50 [2]: > 10 µM | IC50 [3]: > 10 µM

COc1cc(OC)cc(N(CC(O)CO)c2ccc3ncc(-c4ccc(N)nc4)nc3c2)c1 (stereo not shown) [Compound 74]
IC50 [2]: > 10 µM

COc1cc(OC)cc(N(CC2CC2)c2ccc3ncc(-c4nnnn4C)nc3c2)c1 [Compound 83]
IC50 [2]: > 10 µM | IC50 [3]: > 10 µM

COc1cc(OC)cc(N(CC2CC2)c2ccc3ncc(-c4ocnc4C)nc3c2)c1 [Compound 104]
IC50 [2]: > 10 µM

COc1cc(OC)cc(N(CCO)c2ccc3ncc(-c4ccc(OC)nc4)nc3c2)c1 [Compound 111]
IC50 [2]: > 10 µM

COc1cc(OC)cc(N(CCCO)c2ccc3ncc(-c4cccnc4)nc3c2)c1 [Compound 112]
IC50 [2]: > 10 µM

CNc1ccc(-c2cnc3ccc(N(CCCO)c4cc(OC)cc(OC)c4)cc3n2)cn1 [Compound 116]
IC50 [2]: > 10 µM

COc1cc(OC)cc(N(CCCO)c2ccc3ncc(-c4ccc(F)nc4)nc3c2)c1 [Compound 117]
IC50 [2]: > 10 µM

COc1cc(OC)cc(N(CCO)c2ccc3ncc(-c4ccnc(C(=O)NCCCN)c4)nc3c2)c1 [Compound 123]
IC50 [2]: > 10 µM

COc1cc(OC)cc(N(CCCO)c2ccc3ncc(-c4ccc(N5CCOCC5)nc4)nc3c2)c1 [Compound 124]
IC50 [2]: > 10 µM

COc1cc(OC)cc(N(CCCNCC(F)(F)F)c2ccc3ncc(-c4ccc(N(C)C(=O)OC(C)(C)C)nc4)nc3c2)c1 [Compound 127]
IC50 [2]: > 10 µM

COc1cc(OC)cc(N(CCCO)c2ccc3ncc(-c4ccnc(NC(=O)OC(C)(C)C)c4)nc3c2)c1 [Compound 128]
IC50 [2]: > 10 µM

— patent US10052320B2, “Substituted quinoxalines as FGFR kinase inhibitors” (ASTEX THERAPEUTICS LIMITED, priority 2011, dated 2018)
